From patent publication US8658604B2, “Template-fixed beta-hairpin peptidomimetics with protease inhibitory activity” (Polyphor Ltd, priority 2005, dated 2014)
Where a SMILES comes first, the peptide text is derived from it.

Legend:
[1] = biological target: Trypsin, from human pancreas (Homo sapiens, UniProt P07477); experiment: Enzymatic assay, trypsin; conditions: at 100 μM
[2] = biological target: T1, Chymase, from human skin (Homo sapiens, UniProt P23946); experiment: Enzymatic assay, chymase
T1 sequence (P23946 22-247): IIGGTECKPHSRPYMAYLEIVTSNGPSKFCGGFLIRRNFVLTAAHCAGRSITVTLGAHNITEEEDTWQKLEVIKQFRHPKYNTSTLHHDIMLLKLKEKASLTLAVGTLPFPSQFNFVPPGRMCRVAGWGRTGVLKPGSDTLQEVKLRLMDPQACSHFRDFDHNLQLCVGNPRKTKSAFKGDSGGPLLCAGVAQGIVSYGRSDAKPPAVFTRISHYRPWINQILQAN

[3] = biological target: T2, Elastase from human neutrophils (Homo sapiens, UniProt P08246); experiment: Enzymatic assay, elastase; conditions: Elastase IC50
T2 sequence (P08246 30-267): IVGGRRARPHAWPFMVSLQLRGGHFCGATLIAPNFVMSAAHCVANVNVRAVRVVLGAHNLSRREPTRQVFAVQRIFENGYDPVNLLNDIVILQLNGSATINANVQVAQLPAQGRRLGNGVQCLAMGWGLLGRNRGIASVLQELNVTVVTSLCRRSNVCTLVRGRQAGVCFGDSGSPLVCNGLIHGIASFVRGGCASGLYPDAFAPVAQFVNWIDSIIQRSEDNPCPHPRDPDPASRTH

[4] = biological target: Thrombin, from Human Plasma (Homo sapiens, UniProt P00734); experiment: Enzymatic assay, thrombin
[5] = tested on: Tryptase, from human lung; experiment: Enzymatic assay, tryptase; conditions: at 100 μM
[6] = biological target: Urokinase from human urine (Homo sapiens, UniProt P00749); experiment: Enzymatic assay, urokinase
[7] = biological target: T3, CathepsinG, from human neutrophils (Homo sapiens, UniProt P08311); experiment: Enzymatic assay, cathepsin G; conditions: for IC50: Cathepsin G IC50
T3 sequence (P08311 21-244): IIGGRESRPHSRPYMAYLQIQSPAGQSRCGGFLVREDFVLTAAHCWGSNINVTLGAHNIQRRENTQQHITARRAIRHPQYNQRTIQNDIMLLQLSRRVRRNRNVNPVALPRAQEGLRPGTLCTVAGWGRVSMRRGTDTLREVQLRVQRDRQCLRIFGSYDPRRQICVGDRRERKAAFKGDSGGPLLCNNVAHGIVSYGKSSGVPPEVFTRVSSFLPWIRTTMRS

[8] = biological target: Chymotrypsin, from human pancreas (Homo sapiens, UniProt P17538); experiment: Enzymatic assay, chymotrypsin
Chain of Chymotrypsin, from human pancreas (P17538 19-263): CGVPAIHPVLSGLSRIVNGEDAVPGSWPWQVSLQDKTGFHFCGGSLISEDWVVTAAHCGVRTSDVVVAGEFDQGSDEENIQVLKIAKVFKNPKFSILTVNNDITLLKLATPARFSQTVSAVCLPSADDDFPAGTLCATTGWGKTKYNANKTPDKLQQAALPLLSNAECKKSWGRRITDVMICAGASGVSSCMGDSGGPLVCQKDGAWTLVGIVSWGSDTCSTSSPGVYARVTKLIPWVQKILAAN

[9] = biological target: Coagulation Factor Xa, from uman plasma (Homo sapiens, UniProt P00742); experiment: Enzymatic assay, coagulation factor Xa
Chain of Coagulation Factor Xa, from uman plasma (P00742 235-488 limits assumed): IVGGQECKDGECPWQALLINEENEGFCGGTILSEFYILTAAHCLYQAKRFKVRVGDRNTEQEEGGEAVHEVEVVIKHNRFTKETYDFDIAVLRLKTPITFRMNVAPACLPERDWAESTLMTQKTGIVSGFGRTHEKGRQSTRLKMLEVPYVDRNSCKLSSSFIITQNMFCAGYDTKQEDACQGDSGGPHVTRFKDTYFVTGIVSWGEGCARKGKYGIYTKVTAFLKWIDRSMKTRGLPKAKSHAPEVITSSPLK
Chain of Coagulation Factor Xa, from uman plasma (P00742 41-179 limits assumed): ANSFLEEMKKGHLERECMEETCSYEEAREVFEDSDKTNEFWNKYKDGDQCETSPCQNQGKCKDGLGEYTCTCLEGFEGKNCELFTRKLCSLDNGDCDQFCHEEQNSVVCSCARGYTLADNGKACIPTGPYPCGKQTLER

[10] = at 100 μM (stated in cell instead of IC50)

Structure (SMILES)	Trypsin at 100 μM % [1]	Chymase at 100 μM % [2]	IC50 [3]	Thrombin at 100 μM % [4]	Tryptase At 100 μM % [5]	Urokinase at 100 μM % [6]	IC50 [7]	Chymotrypsin at 100 μM % [8]	FXa at 100 μM % [9]	IC50 [8]	Tryptase at 100 μM % [5]	Cathepsin G at 100 μM % [7, 10]	Cathepsin G at 100 μM % ([7]; at 100 μM)
CCCC[C@@H]1NC(=O)[C@@H]2CCCN2C(=O)[C@H]2CCCN2C(=O)[C@H](Cc2ccc(O)cc2)NC(=O)[C@@H]2CSSC[C@H](NC1=O)C(=O)N[C@@H]([C@@H](C)O)C(=O)N[C@@H](C)C(=O)N[C@@H](CO)C(=O)N[C@@H]([C@@H](C)CC)C(=O)N1CCC[C@H]1C(=O)N1CC(NC(=O)c3ccccc3)C[C@H]1C(=O)N[C@@H](CCC(N)=O)C(=O)N2 (single isomer, unassigned) [Ex. 138]	12.2%	4.6%	19 nM	17.1%	0%	14.4%	43900 nM	77.1%	12.6%				
CC[C@H](C)[C@@H]1NC(=O)[C@@H]2CCCN2C(=O)[C@@H]2CCCN2C(=O)[C@H](CC(=O)O)NC(=O)[C@H](CO)NC(=O)[C@H](CCCCN)NC(=O)[C@H]([C@@H](C)O)NC(=O)[C@@H]2CSSC[C@H](NC1=O)C(=O)N[C@@H](Cc1ccc(O)cc1)C(=O)N1CCC[C@@H]1C(=O)N1CCC[C@H]1C(=O)N[C@@H](CCc1ccccc1)C(=O)N2 [Ex. 30] (HELM PEPTIDE1{[O=C([C@H](CCc1ccccc1)N[*:1])[*:2]].C.T.K.S.D.P.P.I.C.Y.[dP].P}$PEPTIDE1,PEPTIDE1,2:R3-10:R3|PEPTIDE1,PEPTIDE1,1:R1-13:R2$$$V2.0)	98%	0%	49900 nM	2%		9%	39 nM	49%	3%				
CCCC[C@@H]1NC(=O)[C@@H]2CCCN2C(=O)[C@H]2CCCN2C(=O)[C@H](Cc2ccc(O)cc2)NC(=O)[C@@H]2CSSC[C@H](NC1=O)C(=O)N[C@@H]([C@@H](C)O)C(=O)N[C@@H](C)C(=O)N[C@@H](CO)C(=O)N[C@@H](CC(C)(C)C)C(=O)N1CCC[C@H]1C(=O)N1CCC[C@H]1C(=O)N[C@@H](CCC(N)=O)C(=O)N2 [Ex. 85] (HELM PEPTIDE1{[Nle].C.T.A.S.[CC(C)(C)C[C@H](N[*:1])C(=O)[*:2]].P.P.Q.C.Y.[dP].P}$PEPTIDE1,PEPTIDE1,2:R3-10:R3|PEPTIDE1,PEPTIDE1,1:R1-13:R2$$$V2.0)	0%		28 nM	12.6%					25.6%	> 20000 nM			
CCCC[C@@H]1NC(=O)[C@@H]2CCCN2C(=O)[C@H]2CCCN2C(=O)[C@H](Cc2ccc(O)cc2)NC(=O)[C@@H]2CSSC[C@H](NC1=O)C(=O)N[C@@H](C)C(=O)N[C@@H](C)C(=O)N[C@@H](CO)C(=O)N[C@@H]([C@@H](C)CC)C(=O)N1CCC[C@H]1C(=O)N1CCC[C@H]1C(=O)N[C@@H](CCC(N)=O)C(=O)N2 [Ex. 86] (HELM PEPTIDE1{[Nle].C.A.A.S.I.P.P.Q.C.Y.[dP].P}$PEPTIDE1,PEPTIDE1,2:R3-10:R3|PEPTIDE1,PEPTIDE1,1:R1-13:R2$$$V2.0)	0%	0%	26 nM	10.7%					24.8%	> 100000 nM	0%	47 at 100%	
CCCC[C@@H]1NC(=O)[C@H](CCC(N)=O)NC(=O)[C@H]2CCCN2C(=O)[C@H](Cc2ccc(O)cc2)NC(=O)[C@@H]2CSSC[C@H](NC1=O)C(=O)N[C@@H]([C@@H](C)O)C(=O)N[C@@H](C)C(=O)N[C@@H](CO)C(=O)N[C@@H]([C@@H](C)CC)C(=O)N1CCC[C@H]1C(=O)N1CCC[C@H]1C(=O)N[C@@H](CCC(N)=O)C(=O)N2 [Ex. 123] (HELM PEPTIDE1{[Nle].C.T.A.S.I.P.P.Q.C.Y.[dP].Q}$PEPTIDE1,PEPTIDE1,2:R3-10:R3|PEPTIDE1,PEPTIDE1,1:R1-13:R2$$$V2.0)	7.9%	0%	14 nM	2.7%		7.6%	35200 nM		0%	15000 nM			
CCCC[C@@H]1NC(=O)[C@H](CCC(=O)O)NC(=O)[C@@H](CCCCN)NC(=O)[C@H](Cc2ccc(O)cc2)NC(=O)[C@@H]2CSSC[C@H](NC1=O)C(=O)N[C@@H]([C@@H](C)O)C(=O)N[C@@H](C)C(=O)N[C@@H](CO)C(=O)N[C@@H]([C@@H](C)CC)C(=O)N1CCC[C@H]1C(=O)N1CCC[C@H]1C(=O)N[C@@H](CCC(N)=O)C(=O)N2 [Ex. 127] (HELM PEPTIDE1{[Nle].C.T.A.S.I.P.P.Q.C.Y.[dK].E}$PEPTIDE1,PEPTIDE1,2:R3-10:R3|PEPTIDE1,PEPTIDE1,1:R1-13:R2$$$V2.0)	0%	1.9%	29 nM	3.7%				47.2%	13.3%		0%	64 at 100%	
CCCCCCCC[C@@H]1NC(=O)[C@@H]2CCCN2C(=O)[C@H]2CCCN2C(=O)[C@H](CCC(N)=O)NC(=O)[C@@H]2CSSC[C@H](NC1=O)C(=O)N[C@@H]([C@@H](C)O)C(=O)N[C@@H](C)C(=O)N[C@@H](CO)C(=O)N[C@@H](CC1CCCCC1)C(=O)N1CCC[C@H]1C(=O)N1CC(NC(=O)c3ccccc3)C[C@H]1C(=O)N[C@@H](CCC(N)=O)C(=O)N2 (some centres unmarked) [Ex. 160] (HELM PEPTIDE1{[CCCCCCCC[C@H](N[*:1])C(=O)[*:2]].C.T.A.S.[Cha].P.[O=C(NC1C[C@@H](C(=O)[*:2])N([*:1])C1)c1ccccc1].Q.C.Q.[dP].P}$PEPTIDE1,PEPTIDE1,2:R3-10:R3|PEPTIDE1,PEPTIDE1,1:R1-13:R2$$$V2.0)	3%	2%		23%	30%	14%		94%	1%				55 at 100%
CCCC[C@@H]1NC(=O)[C@H](CCC(N)=O)NC(=O)[C@@H](CCC(N)=O)NC(=O)[C@H](CCC(N)=O)NC(=O)[C@@H]2CSSC[C@H](NC1=O)C(=O)N[C@@H]([C@@H](C)O)C(=O)N[C@@H](C)C(=O)N[C@@H](CO)C(=O)N[C@@H](CC1CCCCC1)C(=O)N1CCC[C@H]1C(=O)N1CC(NC(=O)c3ccccc3)C[C@H]1C(=O)N[C@@H](CCC(N)=O)C(=O)N2 (some centres unmarked) [compound 176] (HELM PEPTIDE1{[Nle].C.T.A.S.[Cha].P.[O=C(NC1C[C@@H](C(=O)[*:2])N([*:1])C1)c1ccccc1].Q.C.Q.[dQ].Q}$PEPTIDE1,PEPTIDE1,2:R3-10:R3|PEPTIDE1,PEPTIDE1,1:R1-13:R2$$$V2.0)	7%	2%		15%	17%	8%		55%	1%				69 at 100%
